Earlier results, collected in US12257323B2, “Modified wound dressings” (CONVATEC TECHNOLOGIES INC., priority 2016, dated 2025).

Key:
Details in all cases: cited from earlier work
MMP-8 = MMP-8 (Homo sapiens, UniProt P22894)
MMP-2 = target: T1, MMP-2 (Homo sapiens, UniProt P08253)
T1 sequence (P08253 110-660): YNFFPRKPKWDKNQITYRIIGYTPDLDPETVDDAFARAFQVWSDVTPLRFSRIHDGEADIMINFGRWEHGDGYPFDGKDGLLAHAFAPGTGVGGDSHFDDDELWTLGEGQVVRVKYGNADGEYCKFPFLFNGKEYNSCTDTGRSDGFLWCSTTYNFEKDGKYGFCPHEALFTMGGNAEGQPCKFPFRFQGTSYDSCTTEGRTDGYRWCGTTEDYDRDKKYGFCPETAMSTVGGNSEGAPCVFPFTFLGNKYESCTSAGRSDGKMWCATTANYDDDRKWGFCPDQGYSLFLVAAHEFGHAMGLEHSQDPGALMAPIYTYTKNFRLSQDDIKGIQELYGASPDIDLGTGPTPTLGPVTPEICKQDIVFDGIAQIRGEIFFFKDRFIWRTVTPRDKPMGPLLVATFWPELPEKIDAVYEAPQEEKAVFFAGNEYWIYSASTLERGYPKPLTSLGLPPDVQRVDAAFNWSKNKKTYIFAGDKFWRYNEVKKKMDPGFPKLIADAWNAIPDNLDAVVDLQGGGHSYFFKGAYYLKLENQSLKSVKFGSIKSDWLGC

MMP-3 = MMP-3 (Homo sapiens, UniProt P08254)
MMP-9 = MMP-9 (Homo sapiens, UniProt P14780)
MMP-1 = target: T2, MMP-1 (Homo sapiens, UniProt P03956)
T2 sequence (P03956 100-469): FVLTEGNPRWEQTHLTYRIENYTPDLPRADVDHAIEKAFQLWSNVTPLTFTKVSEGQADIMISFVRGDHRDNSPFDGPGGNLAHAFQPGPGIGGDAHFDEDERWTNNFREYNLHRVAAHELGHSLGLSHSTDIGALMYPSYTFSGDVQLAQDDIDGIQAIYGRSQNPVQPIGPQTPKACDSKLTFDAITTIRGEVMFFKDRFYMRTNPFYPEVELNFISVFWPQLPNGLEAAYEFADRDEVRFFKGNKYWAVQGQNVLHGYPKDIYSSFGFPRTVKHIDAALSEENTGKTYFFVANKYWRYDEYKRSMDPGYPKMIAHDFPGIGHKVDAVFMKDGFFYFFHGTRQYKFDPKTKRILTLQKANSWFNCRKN

MMP-7 = target: T3, MMP-7 (Homo sapiens, UniProt P09237)
T3 sequence (P09237 95-267): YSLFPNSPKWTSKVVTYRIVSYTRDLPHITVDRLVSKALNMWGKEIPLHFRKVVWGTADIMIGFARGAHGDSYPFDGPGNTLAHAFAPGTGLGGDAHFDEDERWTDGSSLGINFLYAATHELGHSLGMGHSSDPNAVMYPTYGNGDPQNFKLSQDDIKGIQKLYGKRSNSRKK

MMP-3, sequence (P08254 100-477): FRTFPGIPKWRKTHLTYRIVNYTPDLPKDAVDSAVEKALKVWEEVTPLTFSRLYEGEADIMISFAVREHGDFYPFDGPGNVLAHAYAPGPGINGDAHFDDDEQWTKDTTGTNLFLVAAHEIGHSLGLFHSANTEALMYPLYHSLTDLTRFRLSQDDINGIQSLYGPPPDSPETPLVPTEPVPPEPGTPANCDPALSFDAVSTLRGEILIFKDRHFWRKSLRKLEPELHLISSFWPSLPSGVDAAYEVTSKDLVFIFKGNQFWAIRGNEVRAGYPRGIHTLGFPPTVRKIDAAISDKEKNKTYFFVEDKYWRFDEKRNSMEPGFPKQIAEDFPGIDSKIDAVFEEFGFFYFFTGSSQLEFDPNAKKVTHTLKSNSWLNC
MMP-8, sequence (P22894 101-467): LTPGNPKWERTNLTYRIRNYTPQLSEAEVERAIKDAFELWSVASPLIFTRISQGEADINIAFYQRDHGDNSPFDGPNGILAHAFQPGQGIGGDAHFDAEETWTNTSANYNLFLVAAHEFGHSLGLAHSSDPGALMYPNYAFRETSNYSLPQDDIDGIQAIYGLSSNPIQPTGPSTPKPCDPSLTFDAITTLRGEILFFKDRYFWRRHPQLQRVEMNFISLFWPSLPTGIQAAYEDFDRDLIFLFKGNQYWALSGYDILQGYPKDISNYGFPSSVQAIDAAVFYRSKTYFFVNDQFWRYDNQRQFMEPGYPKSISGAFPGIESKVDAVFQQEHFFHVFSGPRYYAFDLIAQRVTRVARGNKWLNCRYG
MMP-9, sequence (P14780 94-707): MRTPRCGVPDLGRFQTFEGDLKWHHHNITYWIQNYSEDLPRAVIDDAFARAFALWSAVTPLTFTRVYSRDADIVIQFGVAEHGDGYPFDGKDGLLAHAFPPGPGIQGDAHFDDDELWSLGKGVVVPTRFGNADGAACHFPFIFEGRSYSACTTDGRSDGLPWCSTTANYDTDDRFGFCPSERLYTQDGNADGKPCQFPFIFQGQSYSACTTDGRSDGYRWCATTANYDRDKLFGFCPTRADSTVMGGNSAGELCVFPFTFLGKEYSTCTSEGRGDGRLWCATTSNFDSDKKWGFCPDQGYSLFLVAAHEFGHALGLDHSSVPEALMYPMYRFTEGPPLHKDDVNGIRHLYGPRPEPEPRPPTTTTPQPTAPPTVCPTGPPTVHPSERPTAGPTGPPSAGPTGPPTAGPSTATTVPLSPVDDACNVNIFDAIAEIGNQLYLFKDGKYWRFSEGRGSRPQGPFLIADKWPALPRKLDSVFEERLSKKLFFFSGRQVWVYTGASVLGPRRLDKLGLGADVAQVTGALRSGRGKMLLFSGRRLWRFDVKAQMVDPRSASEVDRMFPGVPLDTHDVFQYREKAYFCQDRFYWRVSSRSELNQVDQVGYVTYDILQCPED

Row | Substance | Relative rate MMP-8 (MMP-8) | Relative rate MMP-2 (MMP-2) | Relative rate MMP-3 (MMP-3) | Relative rate MMP-9 (MMP-9) | Relative rate MMP-1 (MMP-1) | Relative rate MMP-7 (MMP-7)
1 | Gly-Pro-Gln-Glu#Ile-Ala-Gly-Gln | 330 | 15 | 190 | 29 | 28 | 170
2 | Gly-Pro-Gln-Gly#Phe-Ala-Gly-Gln | 46 | 55 | 140 | 24 | 20 | 74
3 | Gly-Pro-Gln-Gly#Ile-Ala-Gly-Gln | 100 | 100 | 100 | 100 | 100 | 100
4 | Gly-Pro-Gln-Gly#Ile-Phe-Gly-Gln | 510 | 380 | 130 | 390 | 369 | 140
5 | Gly-Pro-Gln-Gly#Gln-Ala-Gly-Gln | 10 | 34 | 38 | 20 | 28 | <5.0
6 | Gly-Pro-Gln-Gly#Ile-Ala-Met-Gln | 34 | 40 | 810 | 35 | 130 | 450
7 | Gly-Pro-Gln-Ala#Ile-Ala-Gly-Gln | 320 | 96 | 300 | 110 | 600 | 530
8 | Gly-Pro-Gln-Gly#Ile-Ala-Gly-Thr | 145 | 59 | 72 | 160 | 160 | 100
9 | Gly-Pro-Hyp-Gly#Ile-Ala-Gly-Gln | 15 | 32 | 83 | 15 | 11 | 17
10 | Gly-Pro-Gln-Gly#Arg-Ala-Gly-Gln | <0.5 | <5.0 | <4.9 | <5.0 | <0.5 | <5.0
11 | Gly-Pro-Tyr-Gly#Ile-Ala-Gly-Gln | 110 | 200 | 230 | 150 | 200 | 240
12 | Gly-Pro-Gln-Gly#Ile-Ala-Gly His | 145 | 150 | 110 | 120 | 91 | 87
13 | Gly-Pro-Gln-Gly#Pro-Ala-Gly-Gln | <0.5 | <5.0 | <0.5 | <5.0 | <0.5 | <5.0
14 | Gly-Pro-Asp-Gly#Ile-Ala-Gly-Gln (GPDGIAGQ; printed: Gly-Pro-Asp-Gly; printed: Ile-Ala-Gly-Gln) | 44 | 11 | 89 | 10 | 30 | 7.0
15 | Gly-Pro-Gln-His#Ile-Ala-Gly-Gln | 50 | 65 | 87 | 44 | 190 | 
16 | Gly-Ala-Gln-Gly#Ile-Ala-Gly-Gln (GAQGIAGQ; printed: Gly-Ala-Gln-Gly; printed: Ile-Ala-Gly-Gln) | 23 | 22 | 62 | 9.4 | 50 | 
